Data: ChEMBL document CHEMBL1124638, “2,4-Diamino-5-benzylpyrimidines and analogues as antibacterial agents. 10. 2,4-Diamino-5-(6-quinolylmethyl)- and -[(tetrahydro-6-quinolyl)methyl]pyrimidine derivatives. Further specificity studies” (J Med Chem, 1989)
Converted amounts (≈) assume the structure as drawn.

Tests used:
Klebsiella pneumoniae [1] = test: Comparative in vitro antibacterial activity with trimethoprim against Klebsiella pneumoniae CN3632; assay type: functional
Enterococcus faecalis = test: Comparative in vitro antibacterial activity with trimethoprim against Streptococcus faecalis CN478; assay type: functional
[2] = tested on: Mycolicibacterium smegmatis; test: Comparative in vitro antibacterial activity with trimethoprim against Mycobacterium smegmatis S 3254; assay type: functional
Escherichia coli = test: Comparative in vitro antibacterial activity with trimethoprim against Escherichia coli CN314; assay type: functional
Salmonella typhimurium = test: Comparative in vitro antibacterial activity with trimethoprim against Salmonella Typhimurium S 8587; assay type: functional, Salmonella enterica subsp. enterica serovar Typhimurium; settings: Salmonella enterica
Staphylococcus aureus = test: Comparative in vitro antibacterial activity with trimethoprim against Staphylococcus aureus CN491; assay type: functional
Proteus vulgaris = test: Comparative in vitro antibacterial activity with trimethoprim against Proteus vulgaris CN329; assay type: functional
Serratia marcescens = test: Comparative in vitro antibacterial activity with trimethoprim against Serratia marcescens CN2398; assay type: functional
Dihydrofolate reductase [3] = target: T1, Dihydrofolate reductase (Rattus norvegicus, UniProt Q920D2); test: Inhibitory activity against dihydrofolate reductase in rat liver; settings: read-out: I50
T1 sequence (Q920D2 whole entry): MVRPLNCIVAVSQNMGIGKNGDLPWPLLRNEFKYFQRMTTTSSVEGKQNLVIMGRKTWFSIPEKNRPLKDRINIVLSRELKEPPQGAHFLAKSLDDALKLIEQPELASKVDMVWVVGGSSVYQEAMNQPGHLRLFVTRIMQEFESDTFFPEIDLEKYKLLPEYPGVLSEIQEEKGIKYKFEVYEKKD

Proteus mirabilis = test: Comparative in vitro antibacterial activity with trimethoprim against Proteus mirabilis S2409; assay type: functional
Shigella flexneri = test: Comparative in vitro antibacterial activity with trimethoprim against Shigella flexneri CN6007; assay type: functional
Streptococcus pyogenes = test: Comparative in vitro antibacterial activity of compound with trimethoprim against Streptococcus pyogenes CN10; assay type: functional
[4] = tested on: Bordetella bronchiseptica; test: Comparative in vitro antibacterial activity with trimethoprim against Bordetella bronchiseptica CN385; assay type: functional
Citrobacter freundii [5] = test: Comparative in vitro antibacterial activity with trimethoprim against Citrobacter freundii 2200/77; assay type: functional
Dihydrofolate reductase [6] = target: Dihydrofolate reductase (Neisseria gonorrhoeae, UniProt P04174); test: Inhibitory activity against Dihydrofolate reductase in Neisseria gonorrhoeae; settings: read-out: I50
Dihydrofolate reductase (Neisseria gonorrhoeae, UniProt P04174), sequence (P04174 whole entry): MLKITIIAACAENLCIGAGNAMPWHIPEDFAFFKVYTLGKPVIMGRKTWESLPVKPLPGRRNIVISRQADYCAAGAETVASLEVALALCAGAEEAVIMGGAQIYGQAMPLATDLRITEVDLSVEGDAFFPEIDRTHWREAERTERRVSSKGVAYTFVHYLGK

Vibrio cholerae = test: Comparative in vitro antibacterial activity with trimethoprim against Vibrio cholerae ATCC 14035; assay type: functional
Streptococcus agalactiae = test: Comparative in vitro antibacterial activity with trimethoprim against Streptococcus agalactiae CN1143; assay type: functional
[7] = Comparative in vitro antibacterial activity with trimethoprim against Salmonella typhi CN512; assay type: functional, salmonella typhosa
Pasteurella multocida = test: Comparative in vitro antibacterial activity with trimethoprim against Pasteurella multocida ATCC 6587; assay type: functional
Klebsiella aerogenes = test: Comparative in vitro antibacterial activity with trimethoprim against Enterobacter aerogenes 2200/86; assay type: functional
[8] = Dissociation constant at 20 degree C; assay type: physicochemical
Citrobacter freundii [9] = test: Comparative in vitro antibacterial activity of compound with trimethoprim against Citrobacter freundii 2200/77; assay type: functional
Klebsiella pneumoniae [10] = test: Comparative in vitro antibacterial activity of compound with trimethoprim against Klebsiella pneumoniae CN3632; assay type: functional

Row | Compound | MIC (Klebsiella pneumoniae [1]) [µg/mL] | MIC (Enterococcus faecalis) [µg/mL] | MIC [2] [µg/mL] | MIC (Escherichia coli) [µg/mL] | MIC (Salmonella typhimurium) [µg/mL] | MIC (Staphylococcus aureus) [µg/mL] | MIC (Proteus vulgaris) [µg/mL] | MIC (Serratia marcescens) [µg/mL] | IC50 (Dihydrofolate reductase [3]) [µM] | MIC (Proteus mirabilis) [µg/mL] | MIC (Shigella flexneri) [µg/mL] | MIC (Streptococcus pyogenes) [µg/mL] | MIC [4] [µg/mL] | MIC (Citrobacter freundii [5]) [µg/mL] | IC50 (Dihydrofolate reductase [6]) [µM] | MIC (Vibrio cholerae) [µg/mL] | MIC (Streptococcus agalactiae) [µg/mL] | MIC [7] [µg/mL] | MIC (Pasteurella multocida) [µg/mL] | MIC (Klebsiella aerogenes) [µg/mL] | also measured
1 | COc1cc(Cc2cnc(N)nc2N)cc2c1N(CCOC(C)=O)CCC2C (stereo unspecified) | 10 (≈ 25.9 µM) | 1 (≈ 2.59 µM) | 3 (≈ 7.78 µM) | 30 (≈ 77.8 µM) | 30 (≈ 77.8 µM) | 3 (≈ 7.78 µM) | 10 (≈ 25.9 µM) | > 10 | 190 | 30 (≈ 77.8 µM) | 30 (≈ 77.8 µM) | 10 (≈ 25.9 µM) | 3 (≈ 7.78 µM) | 10 (≈ 25.9 µM) | 0.63 | 10 (≈ 25.9 µM) | 1 (≈ 2.59 µM) | 30 (≈ 77.8 µM) | 10 (≈ 25.9 µM) | 30 (≈ 77.8 µM) | –
2 | COc1cc(Cc2cnc(N)nc2N)cc2c1N(CCO)CCC2C (stereo unspecified) | 10 (≈ 29.1 µM) | 0.3 (≈ 0.874 µM) | 3 (≈ 8.74 µM) | 30 (≈ 87.4 µM) | 10 (≈ 29.1 µM) | 1 (≈ 2.91 µM) | 10 (≈ 29.1 µM) | 10 (≈ 29.1 µM) | 142 | 10 (≈ 29.1 µM) | 10 (≈ 29.1 µM) | 3 (≈ 8.74 µM) | 10 (≈ 29.1 µM) | 3 (≈ 8.74 µM) | 0.61 | 3 (≈ 8.74 µM) | 1 (≈ 2.91 µM) | 30 (≈ 87.4 µM) | 10 (≈ 29.1 µM) | 30 (≈ 87.4 µM) | –
3 | COc1cccc2c1N(C)CCC2C (stereo unspecified) | – | – | – | – | – | – | – | – | – | – | – | – | – | – | – | – | – | – | – | – | pKa [8]: 6.51
4 | COCCOc1cc(Cc2cnc(N)nc2N)cc2c1NCCC2 | – | 3 (≈ 9.11 µM) | 3 (≈ 9.11 µM) | 100 (≈ 304 µM) | 100 (≈ 304 µM) | 10 (≈ 30.4 µM) | 100 (≈ 304 µM) | > 10 | 170 | > 30 | 100 (≈ 304 µM) | 3 (≈ 9.11 µM) | 30 (≈ 91.1 µM) | – | 0.53 | 10 (≈ 30.4 µM) | 10 (≈ 30.4 µM) | 100 (≈ 304 µM) | 30 (≈ 91.1 µM) | 100 (≈ 304 µM) | MIC (Citrobacter freundii [9]): 100 µg/mL (≈ 304 µM); MIC (Klebsiella pneumoniae [10]): 100 µg/mL (≈ 304 µM)
5 | COc1cc(Cc2cnc(N)nc2N)cc2c1NCC(CO)C2 (stereo unspecified) | 10 (≈ 31.7 µM) | 3 (≈ 9.51 µM) | 10 (≈ 31.7 µM) | 10 (≈ 31.7 µM) | 10 (≈ 31.7 µM) | 3 (≈ 9.51 µM) | 100 (≈ 317 µM) | > 10 | 64 | > 30 | 30 (≈ 95.1 µM) | 10 (≈ 31.7 µM) | 30 (≈ 95.1 µM) | 30 (≈ 95.1 µM) | 0.41 | 3 (≈ 9.51 µM) | 10 (≈ 31.7 µM) | 10 (≈ 31.7 µM) | 30 (≈ 95.1 µM) | 30 (≈ 95.1 µM) | –
6 | CCc1cc(Cc2cnc(N)nc2N)cc2c1N(C)CCC2C (stereo unspecified) | 3 (≈ 9.63 µM) | 0.03 (≈ 0.0963 µM) | 3 (≈ 9.63 µM) | 3 (≈ 9.63 µM) | 1 (≈ 3.21 µM) | 0.03 (≈ 0.0963 µM) | 10 (≈ 32.1 µM) | 3 (≈ 9.63 µM) | 44 | 3 (≈ 9.63 µM) | 10 (≈ 32.1 µM) | 1 (≈ 3.21 µM) | 1 (≈ 3.21 µM) | 3 (≈ 9.63 µM) | 0.3 | 3 (≈ 9.63 µM) | 1 (≈ 3.21 µM) | 10 (≈ 32.1 µM) | 3 (≈ 9.63 µM) | 1 (≈ 3.21 µM) | –
7 | CCN1CC(CO)Cc2cc(Cc3cnc(N)nc3N)cc(OC)c21 (stereo unspecified) | 30 (≈ 87.4 µM) | 3 (≈ 8.74 µM) | 100 (≈ 291 µM) | 100 (≈ 291 µM) | 30 (≈ 87.4 µM) | 10 (≈ 29.1 µM) | > 100 | > 10 | 440 | > 30 | 100 (≈ 291 µM) | 10 (≈ 29.1 µM) | 30 (≈ 87.4 µM) | 100 (≈ 291 µM) | 2.6 | 100 (≈ 291 µM) | 30 (≈ 87.4 µM) | 100 (≈ 291 µM) | 100 (≈ 291 µM) | 10 (≈ 29.1 µM) | –
8 | COc1cc(Cc2cnc(N)nc2N)cc2c1NCCC2 | 3 (≈ 10.5 µM) | 3 (≈ 10.5 µM) | 1 (≈ 3.5 µM) | 10 (≈ 35 µM) | 3 (≈ 10.5 µM) | 3 (≈ 10.5 µM) | 3 (≈ 10.5 µM) | 3 (≈ 10.5 µM) | 76 | 3 (≈ 10.5 µM) | 10 (≈ 35 µM) | 3 (≈ 10.5 µM) | 1 (≈ 3.5 µM) | 10 (≈ 35 µM) | 0.51 | 1 (≈ 3.5 µM) | 3 (≈ 10.5 µM) | 3 (≈ 10.5 µM) | 3 (≈ 10.5 µM) | 3 (≈ 10.5 µM) | –
9 | COc1cc(Cc2cnc(N)nc2N)cc2c1NCC(COC(C)=O)C2 (stereo unspecified) | 100 (≈ 280 µM) | 3 (≈ 8.39 µM) | 30 (≈ 83.9 µM) | 30 (≈ 83.9 µM) | 30 (≈ 83.9 µM) | 10 (≈ 28 µM) | 30 (≈ 83.9 µM) | > 10 | 61 | 30 (≈ 83.9 µM) | 30 (≈ 83.9 µM) | 3 (≈ 8.39 µM) | 10 (≈ 28 µM) | 30 (≈ 83.9 µM) | 0.16 | 10 (≈ 28 µM) | 10 (≈ 28 µM) | 30 (≈ 83.9 µM) | 30 (≈ 83.9 µM) | 30 (≈ 83.9 µM) | –
10 | CC1CCNc2ccc(Cc3cnc(N)nc3N)cc21 (stereo unspecified) | 30 (≈ 111 µM) | 3 (≈ 11.1 µM) | 3 (≈ 11.1 µM) | 30 (≈ 111 µM) | 10 (≈ 37.1 µM) | 3 (≈ 11.1 µM) | 10 (≈ 37.1 µM) | 10 (≈ 37.1 µM) | 22 | 10 (≈ 37.1 µM) | 30 (≈ 111 µM) | 1 (≈ 3.71 µM) | 10 (≈ 37.1 µM) | 30 (≈ 111 µM) | 0.4 | 3 (≈ 11.1 µM) | 3 (≈ 11.1 µM) | 10 (≈ 37.1 µM) | 3 (≈ 11.1 µM) | 10 (≈ 37.1 µM) | –
